Source: patent publication US12024513B2, “NLRP3 modulators” (INNATE TUMOR IMMUNITY, INC., priority 2018, dated 2024)

Columns and labels:
Type in all cases: cell-based
NLRP3 = target: T1, NLRP3 (Homo sapiens, UniProt Q96P20); experiment: Measurement of IL-1β production in PMA-differentiated THP-1 cells (NLRP3 hIL1B); details: one or more of the described procedures
T1 construct: host or cells: THP-1 cells, PMA-differentiated
Experimental: Measurement of IL-1β Production in PMA-Differentiated THP-1 Cells
THP-1 cells were purchased from the American Type Culture Collection and sub-cultured according to instructions from the supplier. Prior to experiments, cells were cultured in RPMI 1640 containing 10% heat inactivated FBS, penicillin (100 units/ml) and streptomycin (100 μg/ml), and maintained in log phase prior to experimental setup. Prior to the experiment THP-1 were treated with PMA (Phorbol 12-myristate 13-acetate) (10 μg/ml) for 24 hours. The day of the experiment the media was removed and attaching cells were treated with trypsin for 2 minutes, cells were then collected, washed with PBS (phosphate buffer saline), spin down, resuspended in 2% heat inactivated FBS with RPMI at a concentration of 1×10^6 cells/ml, and 100 μl was plated in a 96 well plate. Compounds were dissolved in dimethyl sulfoxide (DMSO) and added to the culture medium to achieve desired concentration (e.g. 100, 30, 10, 3, 1, 0.3 or 0.1 μM). Cells were incubated with compounds for 4 hours. Cell free supernatant was collected and the production of IL-1β was evaluated by ELISA. A vehicle only control was run concurrently with each experiment. Final DMSO concentration was 1%.
Measurement of IL-1β Production in PMA-Differentiated THP-1 Cells (Alternative Procedure)
THP-1 cells were purchased from the American Type Culture Collection and sub-cultured according to instructions from the supplier. Prior to experiments, cells were cultured in RPMI 1640 containing 10% heat inactivated FBS, penicillin (100 units/ml), streptomycin (100 μg/ml), HEPES (10 mM) and sodium pyruvate (1 mM) and maintained in log phase prior to experimental setup. Prior to the experiment, THP-1 cells were treated with PMA (Phorbol 12-myristate 13-acetate) (20 μg/ml) overnight. The day of the experiment, the media was removed and attached cells were treated with trypsin for 2 minutes, cells were then collected, washed with PBS (phosphate buffer saline), pelleted by centrifugation and resuspended in 2% heat inactivated FBS with RPMI at a concentration of 50,000 cells/well in a 384 well plate. Cell free supernatant was collected and the production of IL-1β was evaluated by ELISA. Compounds were dissolved in dimethyl sulfoxide (DMSO) and added to the culture medium to achieve desired concentration (e.g. 100, 30, 10, 3, 1, 0.3 or 0.1 μM). Cells were incubated with compounds for 2 hours. A vehicle only control was run concurrently with each experiment. Final DMSO concentration was 1%.
Measurement of IL-1β Production—hTRF Protocol (Second Alternative Procedure)
Serial dilutions of compounds in DMSO were added to low volume 384 well plates at 100 nl/well using an ECHO 550 acoustic dispenser (Labcyte) to achieve final starting concentration of 10 μM in assay.
THP-1 cells in RPMI (Gibco, 11875) media with 10% FBS at a density of 1×10^6 cell/ml in a T175 flask were treated with a final concentration of phorbol 12-myristate 13-acetate (PMA) (Sigma, PI585) of 50 ng/ml overnight at 37° C. at 5% CO2 for differentiation. Cells were harvested the next day after rinsing well wth dPBS using 0.5% trypsin. A cell solution was prepared of 1×10^6 cells/ml for 50,000 cells in 50 μl/well in RPMI media with 2% FBS. Cells were plated using a multichannel pipette onto the compound dilutions in Greiner, 384 well, black clear bottom tissue culture treated plates (781090). The plates were incubated in 37° C. incubator at 5% CO2 for 2 hours.
After the 2 hour incubation, the cell plates were spun in the centrifuge for 5 minutes at 1200 rpm. Using the Felix (CyBio), 8 μl of the supernatant was transferred to 384 well, low volume, white proxy plates. (Perkin Elmer, 6008230). A human ILlbeta hTRF kit was used to analyze the supernatant (CISBIO, 62HIL1BPEG). The kit instructions were followed for preparing the IL1Beta standard curve and then the antibodies from the kit were diluted 1:40 rather than 1:20 as kit instructed. […]

human TLR8 = target: T2, human TLR8 (Homo sapiens, UniProt Q9NR97); experiment: In vitro human TLR8 reporter assay (HEK-Blue, NF-kB/AP1-inducible SEAP); details: HEK-Blue cells co-expressing TLR8 and SEAP reporter, 18 h; read-out: TLR8 agonist EC50
T2 construct: host or cells: human HEK-Blue cells
T2 sequence (Q9NR97 27-1041): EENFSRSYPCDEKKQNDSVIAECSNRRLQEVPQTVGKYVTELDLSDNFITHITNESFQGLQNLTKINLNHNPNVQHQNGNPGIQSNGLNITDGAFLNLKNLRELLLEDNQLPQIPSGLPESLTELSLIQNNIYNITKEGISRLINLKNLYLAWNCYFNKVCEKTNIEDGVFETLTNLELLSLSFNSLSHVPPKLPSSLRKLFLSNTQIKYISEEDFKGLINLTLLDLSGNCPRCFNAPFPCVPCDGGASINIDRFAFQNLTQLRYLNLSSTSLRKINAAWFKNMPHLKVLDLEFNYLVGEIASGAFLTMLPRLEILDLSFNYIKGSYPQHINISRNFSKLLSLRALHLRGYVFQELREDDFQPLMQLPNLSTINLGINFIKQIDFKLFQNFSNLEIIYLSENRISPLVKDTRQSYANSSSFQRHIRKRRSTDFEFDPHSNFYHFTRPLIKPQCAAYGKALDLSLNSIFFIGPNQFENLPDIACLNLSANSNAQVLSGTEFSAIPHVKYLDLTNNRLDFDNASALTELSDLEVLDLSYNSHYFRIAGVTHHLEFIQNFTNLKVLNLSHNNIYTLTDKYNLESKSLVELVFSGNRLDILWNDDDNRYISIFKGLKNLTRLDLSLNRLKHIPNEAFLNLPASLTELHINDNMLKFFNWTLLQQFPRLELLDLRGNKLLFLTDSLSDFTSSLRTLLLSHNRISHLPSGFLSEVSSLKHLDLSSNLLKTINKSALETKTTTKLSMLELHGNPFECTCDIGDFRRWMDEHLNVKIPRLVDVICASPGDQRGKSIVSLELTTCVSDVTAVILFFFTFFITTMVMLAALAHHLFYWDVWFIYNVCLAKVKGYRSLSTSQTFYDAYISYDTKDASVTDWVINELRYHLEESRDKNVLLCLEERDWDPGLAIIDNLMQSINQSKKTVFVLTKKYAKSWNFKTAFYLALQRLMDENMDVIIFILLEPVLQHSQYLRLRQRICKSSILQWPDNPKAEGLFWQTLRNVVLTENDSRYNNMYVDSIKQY
Experimental: (§1) In Vitro Human TLR7 and TLR8 Binding Reporter Assays
(§2) Logarithmically-growing human HEK-Blue cells co-expressing a TLR7 or TLR8 gene and a NF-kB/AP1-inducible SEAP (secreted embryonic alkaline phosphatase; Invivogen, San Diego, CA) reporter gene are added to individual wells of a 384-well plate (15,000 cells per 20 μL per well) and maintained for 24 h at 37° C. 5% CO2. Test compounds or DMSO are distributed to separate wells the next day using acoustic liquid handling technology (100 nL per well) and cells are subsequently incubated for 18 h at 37° C. 5% CO2. Cellular SEAP production is measured using an Envision plate reader instrument thirty minutes after adding freshly-made Quanti-Blue reagent (prepared by following manufacturer instructions; Invivogen, San Diego, CA) to the HEK-Blue TLR Nf-kB-SEAP cell reactions. All EC50 values (half-maximal effective concentration) are determined using proprietary data analysis software. Normalized EC50 value=absolute value determined by setting 100% Ymax using a reference standard RLU (relative light unit) values from cells treated with 50 μM of the reference standard.

human TLR7 = target: T3, human TLR7 (Homo sapiens, UniProt Q9NYK1); experiment: In vitro human TLR7 reporter assay (HEK-Blue, NF-kB/AP1-inducible SEAP); details: HEK-Blue cells co-expressing TLR7 and SEAP reporter, 18 h; read-out: TLR7 agonist EC50
T3 construct: host or cells: human HEK-Blue cells
T3 sequence (Q9NYK1 27-1049): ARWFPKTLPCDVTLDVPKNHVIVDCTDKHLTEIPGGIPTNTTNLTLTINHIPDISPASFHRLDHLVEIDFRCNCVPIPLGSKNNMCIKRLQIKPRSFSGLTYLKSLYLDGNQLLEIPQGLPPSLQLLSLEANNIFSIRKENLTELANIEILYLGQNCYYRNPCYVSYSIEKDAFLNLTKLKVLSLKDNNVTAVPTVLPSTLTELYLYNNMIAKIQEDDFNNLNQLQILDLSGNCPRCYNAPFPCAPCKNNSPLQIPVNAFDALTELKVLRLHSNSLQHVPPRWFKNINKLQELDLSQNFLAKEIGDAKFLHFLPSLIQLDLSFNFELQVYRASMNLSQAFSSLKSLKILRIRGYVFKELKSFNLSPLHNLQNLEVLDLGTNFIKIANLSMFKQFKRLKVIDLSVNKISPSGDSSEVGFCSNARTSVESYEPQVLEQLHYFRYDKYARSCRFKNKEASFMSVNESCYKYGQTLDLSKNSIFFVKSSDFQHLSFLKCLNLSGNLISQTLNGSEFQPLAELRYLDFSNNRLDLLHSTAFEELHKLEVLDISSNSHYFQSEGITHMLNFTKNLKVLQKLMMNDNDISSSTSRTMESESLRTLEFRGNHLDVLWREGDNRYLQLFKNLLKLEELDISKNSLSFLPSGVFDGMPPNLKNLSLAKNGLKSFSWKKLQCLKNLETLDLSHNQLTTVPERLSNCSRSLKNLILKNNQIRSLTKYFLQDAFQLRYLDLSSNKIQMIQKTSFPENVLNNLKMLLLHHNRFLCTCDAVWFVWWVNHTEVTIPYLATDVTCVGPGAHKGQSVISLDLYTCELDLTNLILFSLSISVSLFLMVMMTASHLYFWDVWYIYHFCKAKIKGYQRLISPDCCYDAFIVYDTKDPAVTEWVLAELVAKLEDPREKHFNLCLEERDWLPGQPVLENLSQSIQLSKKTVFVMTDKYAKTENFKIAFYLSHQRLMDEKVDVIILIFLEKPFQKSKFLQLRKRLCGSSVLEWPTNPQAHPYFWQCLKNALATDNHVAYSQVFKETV
Experimental: as §1, §2

T1 sequence (Q96P20 whole entry): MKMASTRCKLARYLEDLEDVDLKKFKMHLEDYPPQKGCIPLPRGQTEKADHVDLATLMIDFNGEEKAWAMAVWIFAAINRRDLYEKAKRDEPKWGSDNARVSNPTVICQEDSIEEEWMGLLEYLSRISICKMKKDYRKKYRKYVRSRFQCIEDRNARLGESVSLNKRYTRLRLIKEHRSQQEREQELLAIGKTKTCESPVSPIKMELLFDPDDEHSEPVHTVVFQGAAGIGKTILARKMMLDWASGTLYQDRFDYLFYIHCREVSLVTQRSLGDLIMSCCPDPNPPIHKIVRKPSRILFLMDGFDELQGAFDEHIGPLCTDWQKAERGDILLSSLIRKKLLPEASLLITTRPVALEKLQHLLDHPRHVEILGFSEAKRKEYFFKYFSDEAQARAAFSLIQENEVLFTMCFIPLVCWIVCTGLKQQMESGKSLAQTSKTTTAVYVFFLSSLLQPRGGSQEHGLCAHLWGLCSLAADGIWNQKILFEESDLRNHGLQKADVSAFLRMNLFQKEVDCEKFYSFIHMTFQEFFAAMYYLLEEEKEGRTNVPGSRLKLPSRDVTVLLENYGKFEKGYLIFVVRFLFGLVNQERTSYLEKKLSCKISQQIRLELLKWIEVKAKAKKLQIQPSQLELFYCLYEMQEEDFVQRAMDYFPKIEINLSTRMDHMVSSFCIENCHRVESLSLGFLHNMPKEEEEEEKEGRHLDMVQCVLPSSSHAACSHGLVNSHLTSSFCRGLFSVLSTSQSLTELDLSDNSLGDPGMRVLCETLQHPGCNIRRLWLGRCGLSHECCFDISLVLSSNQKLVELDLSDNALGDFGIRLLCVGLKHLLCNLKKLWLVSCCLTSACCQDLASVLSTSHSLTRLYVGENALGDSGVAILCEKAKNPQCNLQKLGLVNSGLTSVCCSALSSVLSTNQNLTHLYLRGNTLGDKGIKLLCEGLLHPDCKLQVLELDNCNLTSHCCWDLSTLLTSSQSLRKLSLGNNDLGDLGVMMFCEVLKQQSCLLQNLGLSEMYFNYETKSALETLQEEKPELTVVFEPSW

| Structure (SMILES) | IC50 (NLRP3) | EC50 (human TLR8) | EC50 (human TLR7) |
| --- | --- | --- | --- |
| Nc1nc2cc(-c3cc[nH]n3)ccc2c2c1nc(CCNC(=O)c1ccccn1)n2C1CCC1 [Example 6] | 410 nM | – | – |
| Nc1nc2cc(-c3cc[nH]n3)ccc2c2c1nc(CCNC(=O)c1ccccn1)n2C1CC1 [Example 5] | 440 nM | – | – |
| Nc1nc2cc(-c3cc[nH]n3)ccc2c2c1nc(CCNC(=O)c1ccccn1)n2CC(F)F [Example 3] | 220 nM | – | – |
| CC(C)n1c(CCNC(=O)c2csc(Cl)n2)nc2c(N)nc3cc(-c4cc[nH]n4)ccc3c21 [Example 10] | 160 nM | – | – |
| CC(C)n1c(CNC(=O)c2ccccn2)nc2c(N)nc3cc(-c4cc[nH]n4)ccc3c21 [Example 14] | 240 nM | 20000 to 100000 nM | – |
| Nc1nc2cc(-c3cc[nH]n3)ccc2c2c1nc(CCNC(=O)C1CCCCO1)n2CC(F)F (centres unmarked) [Example 17] | 1320 nM | – | – |
| CC(C)n1c(CCNC(=O)c2ccc(F)cn2)nc2c(N)nc3cc(-c4cc[nH]n4)ccc3c21 [Example 9] | 120 nM | – | – |
| CC(C)n1c(CCNC(=O)C2CCCO2)nc2c(N)nc3cc(-c4cc[nH]n4)ccc3c21 (centres unmarked) [Example 18] | 1940 nM | – | – |
| CC(C)n1c(CNC(=O)C2CCCO2)nc2c(N)nc3cc(-c4cc[nH]n4)ccc3c21 (centres unmarked) [Example 16] | 220 nM | – | – |
| Nc1nc2cc(-c3cc[nH]n3)ccc2c2c1nc(CNC(=O)C1CCCO1)n2CC(F)F (centres unmarked) [Example 20] | 1880 nM | – | – |
| Nc1nc2cc(-c3cc[nH]n3)ccc2c2c1nc(CCNC(=O)c1ccc(F)cn1)n2C1CCC1 [Example 1, N-{2-[4-amino-1-cyclobutyl-7-(1H-pyrazol-5-yl)-1H-imidazo[4,5-c]quinolin-2-yl]ethyl}-5-fluoropyridine-2-carboxamide] | 120 nM | – | – |
| COc1ccc(C(=O)NCCc2nc3c(N)nc4cc(-c5cc[nH]n5)ccc4c3n2C2CCC2)nc1 [Example 7] | 180 nM | – | – |
| Nc1nc2cc(-c3cc[nH]n3)ccc2c2c1nc(CCNC(=O)c1csc(Cl)n1)n2CC(F)F [Example 11] | 590 nM | – | – |
| COc1ccc(C(=O)NCCc2nc3c(N)nc4cc(-c5cc[nH]n5)ccc4c3n2C(C)C)nc1 [Example 12] | 270 nM | – | – |
| COc1ccc(C(=O)NCCc2nc3c(N)nc4cc(-c5cc[nH]n5)ccc4c3n2C2CC2)nc1 [Example 13] | 1240 nM | – | – |
| CC(C)n1c(CCNC(=O)c2ccccn2)nc2c(N)nc3cc(-c4cc[nH]n4)ccc3c21 [Example 2] | 70 nM | – | – |
| Nc1nc2cc(-c3cc[nH]n3)ccc2c2c1nc(CNC(=O)C1CCCCO1)n2CC(F)F (centres unmarked) [Example 19] | 790 nM | 20000 to 100000 nM | 20000 to 100000 nM |
| Nc1nc2cc(-c3cc[nH]n3)ccc2c2c1nc(CCNC(=O)c1ccc(F)cn1)n2C1CC1 [Example 8] | 270 nM | – | – |
| Nc1nc2cc(-c3cc[nH]n3)ccc2c2c1nc(CCNC(=O)c1ccc(F)cn1)n2CC(F)F [Example 4] | 340 nM | – | – |
| CC(C)n1c(CNC(=O)C2CCCCO2)nc2c(N)nc3cc(-c4cc[nH]n4)ccc3c21 (centres unmarked) [Example 15] | 270 nM | – | – |
